For series [1], the target named is T1, PFKL (Homo sapiens, UniProt P17858).
T1 construct: endogenous in cells; host or cells: HEK293T
T1 sequence (P17858 1-780): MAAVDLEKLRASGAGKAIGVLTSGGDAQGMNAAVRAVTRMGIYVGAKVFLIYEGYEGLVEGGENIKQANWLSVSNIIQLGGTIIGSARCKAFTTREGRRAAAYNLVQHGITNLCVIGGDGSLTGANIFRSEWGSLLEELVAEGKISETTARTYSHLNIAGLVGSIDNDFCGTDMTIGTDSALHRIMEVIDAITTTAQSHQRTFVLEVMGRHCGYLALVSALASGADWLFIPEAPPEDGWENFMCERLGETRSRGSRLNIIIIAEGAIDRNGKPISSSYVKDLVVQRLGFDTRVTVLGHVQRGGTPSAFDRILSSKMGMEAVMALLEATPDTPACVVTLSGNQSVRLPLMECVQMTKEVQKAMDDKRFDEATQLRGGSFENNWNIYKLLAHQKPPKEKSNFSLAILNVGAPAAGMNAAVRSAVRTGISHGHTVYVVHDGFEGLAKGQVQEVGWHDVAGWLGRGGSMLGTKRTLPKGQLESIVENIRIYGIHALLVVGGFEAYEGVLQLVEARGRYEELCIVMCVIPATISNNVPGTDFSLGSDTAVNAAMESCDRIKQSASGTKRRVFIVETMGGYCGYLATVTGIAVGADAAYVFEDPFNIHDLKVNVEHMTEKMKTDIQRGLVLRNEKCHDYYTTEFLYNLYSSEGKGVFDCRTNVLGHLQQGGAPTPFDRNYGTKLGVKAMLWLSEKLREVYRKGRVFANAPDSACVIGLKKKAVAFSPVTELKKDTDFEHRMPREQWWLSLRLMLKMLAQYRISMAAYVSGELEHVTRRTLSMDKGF
In words: In situ gel-based ABPP, blockade of TH211 probe labeling in HEK293T cells. It is filed as cell-based. Conditions: then 25 μM TH211 2 h; for probinding activity (blockade of TH211 probe labeling), protein at ˜80 molecular weight: HEK293T cells in situ, 1 μM compound 1 h. How it is done: HEK293T cells were incubated in 10 cm petri dishes with DMEM medium supplemented with 10% fetal bovine serum and 1% L-glutamine until the confluency reached about 90%. Aspirate the medium and then add serum-free-medium (SFM) with vehicle only (DMSO) or SuTEx compounds in DMSO, which afforded final concentrations of 0.1% DMSO. After incubation at 37° C. for 1 hrs in CO2 incubator, the medium was aspirated and 25 μM of probe TH211 in SFM was added. After incubation at 37° C. for 2 hrs, the medium was aspirated and the cells were washed off in cold PBS. Centrifuge at 400×g for 5 min to pellet and resuspend pellet again in PBS for 2× total washes. The cell pellets were resuspended and lysed by sonication (1 sec pulse, 20% amplitude, 3 times) in PBS in the presence of EDTA-free protease inhibitor cocktail tablet (Pierce Biotechnology, Waltham, Massachusetts, United States of America). The cell lysates were subject to ultracentrifugation (100,000×g, 45 min at 4° C.) to separate the cytosolic fraction in the supernatant and the membrane fraction as a pellet. Protein concentrations in soluble fraction were measured by the Bio-Rad DC protein assay (Bio-Rad Laboratories, Hercules, California, United States of America). Proteome aliquots (2 mg/mL, 50 μL) were conjugated with fluorophore which was accomplished by copper-catalyzed azide-alkyne cycloaddition (CuAAC) with rhodamine-azide (TAMRA-azide, 1.25 mM, 1 μL, final concentration of 25 μM) in the presence of tris(2-carboxyethyl)phosphine (TCEP, 50 mM fresh in water, 1 μL, final concentration of 1 mM), tris[(1-benzyl-1H-1,2,3-triazol-4-yl)methyl]amine (TBTA, 1.7 mM in 4:1 t-butanol/DMSO, 3 μL, final concentration of 100 μM) and CuSO4 (50 mM, 1 μL, final concentration of 1 mM). After 1 hr incubation at room temperature, reactions were quenched by adding 4×SDS-PAGE loading buffer and beta-mercaptoethanol (17 μL) and samples were resolved by SDS-PAGE followed by in-gel fluorescence scanning.
(§1) Some SuTEx analogues with RF001 fragment were synthesized and characterized. The in situ competition assay was then conducted, during which HEK293T cells were treated with 1 μM of a SuTEx analogue for 1 h, followed by treatment with 25 μM of TH211 as the probe for 2 h. […] The analogues with electron-donating groups like methyl or methoxy on the para position of phenyl performed better than those with electron-withdrawing groups. Under the same condition, the IC5o of TH220 was determined as 305.6 nM. The identity of the bound protein was studied by LC-MS/MS. The assay results indicated PFKL as the potential target and that binding sites include Y674 and K677, since the ratio trends are the same as that found in the in situ competition assay. To study selective targeting of PFKL by the series of SuTEx analogues, Fag-PFKL, Flag-PFKM, and Flag-PFKP were overexpressed in HEK293T cells and in vitro competition assays were performed for comparison. […] To optimize these SuTEx ligands, another series of derivatives were synthesized and evaluated with TH233 as a negative control and TH220 as positive control, respectively. […] Compared to TH220, the probinding activity of XJ-2-103 with trifluoromethyl group at para position of the phenyl ring is not as good, which is consistent with the results shown in FIG. 18A.

Series [2] addresses T1, PFKL. In words: SILAC competitive chemical proteomic assay (TH211 probe, LC-MS/MS). Conditions: HEK293T in situ, vehicle (light) vs inhibitor 2 μM (heavy) 1 hr, then TH211 50 μM 2 h; protein/site not given. The format is cell-based. How it is done: The light and heavy proteomes (2.3 mg/mL, 432 μL) prepared from HEK293T cells that were pretreated in situ with vehicle (DMSO) or the inhibitor (2 μM), respectively, at 37° C. for 1 hr followed by probe TH211 treatment (50 μM) for 2 h, were directly were subjected to click reaction with the desthiobiotin-PEG3-azide (10 mM in DMSO, 10 μL, final concentration 200 μM) in the presence of TCEP (50 mM, 10 μL), TBTA (1.7 mM, 33 μL) and CuSO4 (50 mM, 10 μL) at room temperature for 1 hr. The light and the heavy samples were mixed in the chloroform-methanol extraction step. The subsequent steps including reduction with dithiothreitol, alkylation with iodoacetamide, digestion with Trypsin/Lys-C, enrichment with avidin beads were conducted as previously described^26.
as §1

Series [3] can be described thus: HPLC solution reactivity of probe with p-cresol (tyrosine mimetic). The format is physicochemical. Conditions: UV 254 nm, TMG base, 0° C., longest time point tested 90 min. How it is done: (§2) Briefly, reaction progress of KY-26 or XO44 with p-cresol or n-butylamine (16.5 μmol, 3.3 eq.) in the presence of TMG base (1,1,3,3-tetramethylguanidine, 1.1 eq) was evaluated by monitoring probe consumption and quantified based on the signal from the caffeine standard using HPLC. Synthetic peptide reactions were conducted by mixing the peptide (Ac-RLNERHYGGLTGLNK-NH2, 50 nmol, 1.0 eq.) with 1.1 eq of TMG. KY-26 (550 nmol, 11.0 eq) was added to the mixture and the reaction was kept at 37° C. until the reaction achieved at least 50% conversion.
(§3) More particularly, an acetonitrile solution of p-cresol or n-butylamine (16.5 μmol, 3.3 eq.) was mixed with 1.1 eq of TMG. KY-26 or XO44 in ACN:DMF=6:4 (5 μmol, 1.0 eq.) was added to the mixture and the reaction was kept at 0° C. The final molarity for KY-26 or XO44 is 10 mM. Aliquots (50 μl) of the reaction were taken and quenched by adding acetic acid (0.5 M final, 5.0 μmol) and caffeine standard (0.05 M final, 0.5 μmol) at ten-minute intervals for 1.5 hrs. 1.0 μL sample was injected and analyzed by reverse-phase HPLC with mobile phases A (H2O, 0.1% AcOH) and B (CH3CN, 0.1% AcOH) with a gradient of 0-15-85-100% B in 0-0.5-6.5-7 min. UV measurements taken at 254 nm. Reaction progress was evaluated by monitoring KY-26 or XO44 consumption and quantified based on the signal from the caffeine standard. […]

Series [4] is described as follows: HPLC solution reactivity of probe with n-butylamine (lysine mimetic). Conditions: TMG base, 0° C., KY-26 compared with p-cresol. It is filed as physicochemical. How it is done:
as §2, §3

A word on the IC50: it is the concentration needed to halve the response being measured.

Some results are limits rather than exact numbers.

As to `O=S(=O)(c1ccc2c(c1)OCCO2)n1cc(CCN2CCC(=C(c3ccc(F)cc3)c3ccc(F)cc3)CC2)nn1` [XJ-2-77, 4-(Bis(4-fluorophenyl)methylene)-1-(2-(1-((2,3-dihydrobenzo[b][1,4]dioxin-6-yl)sulfonyl-)-1H-1,2,3-triazol-4-yl)ethyl)piperidine], the “probinding activity (blockade of TH211 probe labeling), protein at ˜80 molecular weight” value (from here on “probinding activity”) on PFKL [1] is “good probinding activity”.
For the compound `O=S(=O)(c1ccc2c(c1)OC(F)(F)O2)n1cc(CCN2CCC(=C(c3ccc(F)cc3)c3ccc(F)cc3)CC2)nn1` [XJ-2-115, 4-(Bis(4-fluorophenyl)methylene)-1-(2-(1-((2,2-difluorobenzo[d][1,3]dioxol-5-yl)sulfonyl)-1H-1,2,3-triazol-4-yl)ethyl)piperidine], at PFKL [1], the “probinding activity” value was “good probinding activity”.
As for `COc1ccc(S(=O)(=O)n2cc(CCN3CCC(=C(c4ccc(F)cc4)c4ccc(F)cc4)CC3)nn2)cc1`, the IC50 on PFKL [1] (HEK293T cells, compound 1 h, read-out: IC50 against PFKL, in situ TH211 chemical proteomic assay) is 306 nM. For the same compound, the “SILAC ratios (SR) from competitive chemical proteomic assay” value (shortened to “SILAC ratios (SR)”) at PFKL [2] came out at 8.41.
As for `O=S(=O)(c1ccc2c(c1)OCO2)n1cc(CCN2CCC(=C(c3ccc(F)cc3)c3ccc(F)cc3)CC2)nn1` [XJ-2-87], the “probinding activity” value on PFKL [1] is reported as “good probinding activity”.
For `O=S(=O)(C1CC1)n1cc(CCN2CCC(=C(c3ccc(F)cc3)c3ccc(F)cc3)CC2)nn1` [TH223, 4-(bis(4-fluorophenyl)methylene)-1-(2-(1-(cyclopropylsulfonyl)-1H-1,2,3-triazol-4-yl)ethyl)piperidine], on PFKL [2], the “SILAC ratios (SR)” value is 0.95.
Regarding `COc1ccccc1S(=O)(=O)n1cc(CCN2CCC(=C(c3ccc(F)cc3)c3ccc(F)cc3)CC2)nn1` [XJ-2-141, 4-(Bis(4-fluorophenyl)methylene)-1-(2-(1-((2-methoxyphenyl)sulfonyl)-1H-1,2,3-triazol-4-yl)ethyl)piperidine], the “probinding activity” value on PFKL [1] is reported as “good probinding activity”.
For the compound `C#CCNC(=O)c1cc(Nc2cc(C3CC3)[nH]n2)nc(N2CCN(Cc3ccc(S(=O)(=O)F)cc3)CC2)n1` [XO44, reference compound], the “time to near-complete depletion of probe in reaction with p-cresol” value in series [3] is reported as above 90 min. The “reaction of probe with n-butylamine” value in series [4] is given as “minimal reaction”.
Take `O=S(=O)(c1ccc(F)cc1)n1cc(CCN2CCC(=C(c3ccc(F)cc3)c3ccc(F)cc3)CC2)nn1` [TH221, 4-(Bis(4-fluorophenyl)methylene)-1-(2-(1-((4-fluorophenyl)sulfonyl)-1H-1,2,3-triazol-4-yl)ethyl)piperidine]: the “SILAC ratios (SR)” value on PFKL [2] came to 2.48.
Same read-out and setting: the result for `Cc1ccc(S(=O)(=O)n2cc(CCN3CCN(C(c4ccc(F)cc4)c4ccc(F)cc4)CC3)nn2)cc1` [TH208, 1-(Bis(4-fluorophenyl)methyl)-4-(2-(1-tosyl-1H-1,2,3-triazol-4-yl)ethyl)piperazine] reads 1.04.
